From US4690919A, “Benzoxazinorifamycin derivative, process for preparing the same and antibacterial agent containing the same” (Kanegafuchi Kagaku Kogyo Kabushiki Kaisha, priority 1985, dated 1987)
In brackets after ≈: the same amount, converted by molar mass. Like-named read-outs stand apart in the source and are kept apart here.

How the values were obtained:
[1] = tested on: Bacillus subtilis IFO 3134; assay: Antibacterial activity (MIC), standard method of Japan Society of Chemotherapy; assay type: cell-based
From the text: (§1) The results obtained from the typical compounds are shown in Table 2 as the minimum inhibitory concentration (MIC, μg/ml). […] In Table 2, Test compound No. corresponds to derivative No. in Table 1.

[2] = tested on: Escherichia coli IFO 12734; assay: as above; assay type: cell-based; conditions: IFO12734, read-out: minimum inhibitory concentration (MIC)
From the text: as §1

[3] = tested on: Klebsiella pneumoniae IFO 3512; assay: as above; assay type: cell-based
From the text: as §1

[4] = tested on: Micrococcus luteus IFO 12708; assay: as above; assay type: cell-based
From the text: as §1

[5] = tested on: Mycobacterium smegmatis ATCC 607; assay: as above; assay type: cell-based; conditions: Mycolicibacterium smegmatis
From the text: as §1

[6] = tested on: Staphylococcus aureus IFO 12732; assay: as above; assay type: cell-based
From the text: as §1

[7] = Concentration in serum after oral administration to rats; conditions: rat, 20 mg/kg
[8] = IFO3134, Bacillus subtilis IFO 3134, read-out: minimum inhibitory concentration (MIC)
[9] = IFO3512, Klebsiella pneumoniae IFO 3512, read-out: minimum inhibitory concentration (MIC)
[10] = IFO12708, Micrococcus luteus IFO 12708, read-out: minimum inhibitory concentration (MIC)
[11] = ATCC607, Mycobacterium smegmatis ATCC 607, read-out: minimum inhibitory concentration (MIC)
[12] = IFO12732, Staphylococcus aureus IFO 12732, read-out: minimum inhibitory concentration (MIC)

Structure (SMILES)	MIC [1, 8]	MIC [2]	MIC [3, 9]	MIC [4, 10]	MIC [5, 11]	MIC [6, 12]	concentration at 1 h [7]	concentration at 3 h [7]	concentration at 5 h [7]	MIC ([1]; Bacillus subtilis, IFO3134, read-out: minimum inhibitory concentration (MIC))	MIC ([3]; Klebsiella pneumoniae, IFO3512, read-out: minimum inhibitory concentration (MIC))	MIC ([4]; Micrococcus luteus, IFO12708, read-out: minimum inhibitory concentration (MIC))	MIC ([5]; ATCC607, read-out: minimum inhibitory concentration (MIC))	MIC ([6]; Staphylococcus aureus, IFO12732, read-out: minimum inhibitory concentration (MIC))
CCCN(CCC)c1ccc2nc3c4c5c6c(C)c(O)c4c(=O)c(c-3oc2c1)NC(=O)C(C)=CC=CC(C)C(O)C(C)C(O)C(C)C(OC(C)=O)C(C)C(OC)C=COC(C)(O6)C5=O (stereo not drawn) [compound 4]	0.08 mg/L (≈ 0.0905 µM)	> 10 mg/L	> 10 mg/L	≤ 0.02 mg/L	1.25 mg/L (≈ 1.41 µM)	≤ 0.02 mg/L	2 µg/mL	8.5 µg/mL	2.1 µg/mL					
COC1C=COC2(C)Oc3c(C)c(O)c4c(=O)c(c5oc6cc(N7CCCCC7)ccc6nc-5c4c3C2=O)NC(=O)C(C)=CC=CC(C)C(O)C(C)C(O)C(C)C(OC(C)=O)C1C (stereo not drawn) [compound 19]	≤ 0.02 mg/L	2.5 mg/L (≈ 2.88 µM)	10 mg/L (≈ 11.5 µM)	≤ 0.02 mg/L	1.25 mg/L (≈ 1.44 µM)	≤ 0.02 mg/L	4.9 µg/mL	12.4 µg/mL	16.6 µg/mL					
CO[C@H]1/C=C/O[C@@]2(C)Oc3c(C)c(O)c4c(O)c(c(/C=N/N5CCN(C)CC5)c(O)c4c3C2=O)NC(=O)/C(C)=C\C=C\[C@H](C)[C@H](O)[C@@H](C)[C@@H](O)[C@@H](C)[C@H](OC(C)=O)[C@@H]1C [Rifampicin, reference compound]		10 mg/L (≈ 12.2 µM)								0.04 mg/L (≈ 0.0486 µM)	5 mg/L (≈ 6.08 µM)	≤ 0.02 mg/L	10 mg/L (≈ 12.2 µM)	≤ 0.02 mg/L
CCOCCN(CCOCC)c1ccc2nc3c4c5c6c(C)c(O)c4c(=O)c(c-3oc2c1)NC(=O)C(C)=CC=CC(C)C(O)C(C)C(O)C(C)C(OC(C)=O)C(C)C(OC)C=COC(C)(O6)C5=O (stereo not drawn) [compound 9]	≤ 0.02 mg/L	5 mg/L (≈ 5.3 µM)	10 mg/L (≈ 10.6 µM)	≤ 0.02 mg/L	1.25 mg/L (≈ 1.32 µM)	≤ 0.02 mg/L	2.1 µg/mL	5.4 µg/mL	1.8 µg/mL					
COC(CN(C)c1ccc2nc3c4c5c6c(C)c(O)c4c(=O)c(c-3oc2c1)NC(=O)C(C)=CC=CC(C)C(O)C(C)C(O)C(C)C(OC(C)=O)C(C)C(OC)C=COC(C)(O6)C5=O)OC (stereo not drawn) [compound 11]	≤ 0.02 mg/L	> 10 mg/L	5 mg/L (≈ 5.54 µM)	≤ 0.02 mg/L	2.5 mg/L (≈ 2.77 µM)	≤ 0.02 mg/L	2.9 µg/mL	3.4 µg/mL	1 µg/mL					
COC1C=COC2(C)Oc3c(C)c(O)c4c(=O)c(c5oc6cc(N7CCC7)ccc6nc-5c4c3C2=O)NC(=O)C(C)=CC=CC(C)C(O)C(C)C(O)C(C)C(OC(C)=O)C1C (stereo not drawn) [compound 17]	≤ 0.02 mg/L	2.5 mg/L (≈ 2.98 µM)	2.5 mg/L (≈ 2.98 µM)	≤ 0.02 mg/L	0.63 mg/L (≈ 0.75 µM)	≤ 0.02 mg/L	4.1 µg/mL	3.7 µg/mL	2.5 µg/mL					
CCN(C)c1ccc2nc3c4c5c6c(C)c(O)c4c(=O)c(c-3oc2c1)NC(=O)C(C)=CC=CC(C)C(O)C(C)C(O)C(C)C(OC(C)=O)C(C)C(OC)C=COC(C)(O6)C5=O (stereo not drawn) [compound 2]	0.04 mg/L (≈ 0.0475 µM)	1.25 mg/L (≈ 1.48 µM)	2.5 mg/L (≈ 2.97 µM)	≤ 0.02 mg/L	1.25 mg/L (≈ 1.48 µM)	≤ 0.02 mg/L	3 µg/mL	5.4 µg/mL	3 µg/mL					
COC1C=COC2(C)Oc3c(C)c(O)c4c(=O)c(c5oc6cc(N7CCCC7)ccc6nc-5c4c3C2=O)NC(=O)C(C)=CC=CC(C)C(O)C(C)C(O)C(C)C(OC(C)=O)C1C (stereo not drawn) [compound 18]	≤ 0.02 mg/L	2.5 mg/L (≈ 2.93 µM)	5 mg/L (≈ 5.86 µM)	≤ 0.02 mg/L	1.25 mg/L (≈ 1.46 µM)	≤ 0.02 mg/L	2.3 µg/mL	4.9 µg/mL	3.4 µg/mL					
COC1C=COC2(C)Oc3c(C)c(O)c4c(=O)c(c5oc6cc(N(C)C7CCCCC7)ccc6nc-5c4c3C2=O)NC(=O)C(C)=CC=CC(C)C(O)C(C)C(O)C(C)C(OC(C)=O)C1C (stereo not drawn) [compound 12]	≤ 0.02 mg/L	> 10 mg/L	> 10 mg/L	≤ 0.02 mg/L	1.25 mg/L (≈ 1.4 µM)	≤ 0.02 mg/L								
CCN(CC)c1ccc2nc3c4c5c6c(C)c(O)c4c(=O)c(c-3oc2c1)NC(=O)C(C)=CC=CC(C)C(O)C(C)C(O)C(C)C(OC(C)=O)C(C)C(OC)C=COC(C)(O6)C5=O (stereo not drawn) [compound 3]	≤ 0.02 mg/L	2.5 mg/L (≈ 2.92 µM)	5 mg/L (≈ 5.84 µM)	≤ 0.02 mg/L	1.25 mg/L (≈ 1.46 µM)	≤ 0.02 mg/L	1.8 µg/mL	3.3 µg/mL	1.3 µg/mL					

Further lines, with some results ahead:

MIC [1, 8]	MIC [2]	MIC [3, 9]	MIC [4, 10]	MIC [5, 11]	MIC [6, 12]	concentration at 1 h [7]	concentration at 3 h [7]	concentration at 5 h [7]	Structure (SMILES)	MIC ([1]; Bacillus subtilis, IFO3134, read-out: minimum inhibitory concentration (MIC))	MIC ([3]; Klebsiella pneumoniae, IFO3512, read-out: minimum inhibitory concentration (MIC))	MIC ([4]; Micrococcus luteus, IFO12708, read-out: minimum inhibitory concentration (MIC))	MIC ([5]; ATCC607, read-out: minimum inhibitory concentration (MIC))	MIC ([6]; Staphylococcus aureus, IFO12732, read-out: minimum inhibitory concentration (MIC))
≤ 0.02 mg/L	2.5 mg/L (≈ 2.89 µM)	> 10 mg/L	≤ 0.02 mg/L	1.25 mg/L (≈ 1.44 µM)	0.08 mg/L (≈ 0.0924 µM)				COC1C=COC2(C)Oc3c(C)c(O)c4c(=O)c(c5oc6cc(N7CC=CCC7)ccc6nc-5c4c3C2=O)NC(=O)C(C)=CC=CC(C)C(O)C(C)C(O)C(C)C(OC(C)=O)C1C (stereo not drawn) [compound 37]					
≤ 0.02 mg/L	> 10 mg/L	> 10 mg/L	≤ 0.02 mg/L	1.25 mg/L (≈ 1.4 µM)	≤ 0.02 mg/L	1.8 µg/mL	6.4 µg/mL	1.7 µg/mL	COC1C=COC2(C)Oc3c(C)c(O)c4c(=O)c(c5oc6cc(N7CCCC(C)(C)C7)ccc6nc-5c4c3C2=O)NC(=O)C(C)=CC=CC(C)C(O)C(C)C(O)C(C)C(OC(C)=O)C1C (stereo not drawn) [compound 27]					
0.04 mg/L (≈ 0.0451 µM)	2.5 mg/L (≈ 2.82 µM)	10 mg/L (≈ 11.3 µM)	≤ 0.02 mg/L	1.25 mg/L (≈ 1.41 µM)	≤ 0.02 mg/L				COC1C=COC2(C)Oc3c(C)c(O)c4c(=O)c(c5oc6cc(N7CCSCC7)ccc6nc-5c4c3C2=O)NC(=O)C(C)=CC=CC(C)C(O)C(C)C(O)C(C)C(OC(C)=O)C1C (stereo not drawn) [compound 45]					
≤ 0.02 mg/L	> 10 mg/L	> 10 mg/L	≤ 0.02 mg/L	1.25 mg/L (≈ 1.44 µM)	≤ 0.02 mg/L				COC1C=COC2(C)Oc3c(C)c(O)c4c(=O)c(c5oc6cc(N7CCCC7)cc(O)c6nc-5c4c3C2=O)NC(=O)C(C)=CC=CC(C)C(O)C(C)C(O)C(C)C(OC(C)=O)C1C (stereo not drawn) [compound 46]					
0.04 mg/L (≈ 0.0453 µM)	0.63 mg/L (≈ 0.713 µM)	1.25 mg/L (≈ 1.42 µM)	≤ 0.02 mg/L	1.25 mg/L (≈ 1.42 µM)	0.04 mg/L (≈ 0.0453 µM)				COC1C=COC2(C)Oc3c(C)c(O)c4c(=O)c(c5oc6cc(N7CCN(C)CC7)ccc6nc-5c4c3C2=O)NC(=O)C(C)=CC=CC(C)C(O)C(C)C(O)C(C)C(OC(C)=O)C1C (stereo not drawn) [compound 39]					
≤ 0.02 mg/L	1.25 mg/L (≈ 1.54 µM)	5 mg/L (≈ 6.16 µM)	≤ 0.02 mg/L	1.25 mg/L (≈ 1.54 µM)	≤ 0.02 mg/L	2.7 µg/mL	3.5 µg/mL	2.8 µg/mL	COC1C=COC2(C)Oc3c(C)c(O)c4c(=O)c(c5oc6cc(N7CCCC7)ccc6nc-5c4c3C2=O)NC(=O)C(C)=CC=CC(C)C(O)C(C)C(O)C(C)C(O)C1C (stereo not drawn) [compound 49]					
						0.7 µg/mL	2.4 µg/mL	2.8 µg/mL	COC1C=COC2(C)Oc3c(C)c(O)c4c(=O)c(c5oc6cc(N7CCCCC7)ccc6nc-5c4c3C2=O)NC(=O)C(C)=CC=CC(C)C(O)C(C)C(O)C(C)C(O)C1C (stereo not drawn) [compound 50]					
≤ 0.02 mg/L	> 10 mg/L	> 10 mg/L	≤ 0.02 mg/L	1.25 mg/L (≈ 1.42 µM)	≤ 0.02 mg/L	2.1 µg/mL	6.1 µg/mL	5.2 µg/mL	COC1C=COC2(C)Oc3c(C)c(O)c4c(=O)c(c5oc6cc(N7CCCC(C)C7)ccc6nc-5c4c3C2=O)NC(=O)C(C)=CC=CC(C)C(O)C(C)C(O)C(C)C(OC(C)=O)C1C (stereo not drawn) [compound 23]					
≤ 0.02 mg/L	> 10 mg/L	> 10 mg/L	≤ 0.02 mg/L	1.25 mg/L (≈ 1.42 µM)	≤ 0.02 mg/L				COC1C=COC2(C)Oc3c(C)c(O)c4c(=O)c(c5oc6cc(N7CCC(C)CC7)ccc6nc-5c4c3C2=O)NC(=O)C(C)=CC=CC(C)C(O)C(C)C(O)C(C)C(OC(C)=O)C1C (stereo not drawn) [compound 24]					
0.04 mg/L (≈ 0.0454 µM)	1.25 mg/L (≈ 1.42 µM)	> 10 mg/L	≤ 0.02 mg/L	1.25 mg/L (≈ 1.42 µM)	0.08 mg/L (≈ 0.0907 µM)	3.2 µg/mL	5.7 µg/mL	4.9 µg/mL	COC1C=COC2(C)Oc3c(C)c(O)c4c(=O)c(c5oc6cc(N7CCCCCC7)ccc6nc-5c4c3C2=O)NC(=O)C(C)=CC=CC(C)C(O)C(C)C(O)C(C)C(OC(C)=O)C1C (stereo not drawn) [compound 20]					
≤ 0.02 mg/L	5 mg/L (≈ 5.17 µM)	> 10 mg/L	≤ 0.02 mg/L	1.25 mg/L (≈ 1.29 µM)	≤ 0.02 mg/L				CCN(CC)C(=O)C1CCCN(c2ccc3nc4c5c6c7c(C)c(O)c5c(=O)c(c-4oc3c2)NC(=O)C(C)=CC=CC(C)C(O)C(C)C(O)C(C)C(OC(C)=O)C(C)C(OC)C=COC(C)(O7)C6=O)C1 (stereo not drawn) [compound 31]					
						2.4 µg/mL	6.6 µg/mL	3.5 µg/mL	CCC1CCCCN1c1ccc2nc3c4c5c6c(C)c(O)c4c(=O)c(c-3oc2c1)NC(=O)C(C)=CC=CC(C)C(O)C(C)C(O)C(C)C(OC(C)=O)C(C)C(OC)C=COC(C)(O6)C5=O (stereo not drawn) [compound 25]					
